The assay has as its system Plasmodium falciparum. Put plainly: Antimalarial activity against chloroquine-resistant, mefloquine-sensitive Plasmodium falciparum W2. The class given is functional.
Take `C[C@@H]1CC[C@H]2CCO[C@@H]3O[C@@]4(CCCc5ccc(Cl)cc5)CC[C@@H]1[C@@]23OO4`: the “Log RA” value is given as -0.55.

As to `C[C@@H]1CCC2[C@@H](C)COC3OC4(CCCC4)OO[C@@]32C1` (some centres not stated), the “Log RA” value is -0.26.

As for `CC(C)CN1C(=O)[C@H](C)[C@@H]2CC[C@@H](C)[C@@H]3CC[C@@]4(C)OO[C@]32[C@H]1O4`, the “Log RA” value stood at 1.03.

For the compound `C[C@@H]1CC[C@H]2[C@@H](C)C(OCC3C4CC5CC(C4)CC3C5)O[C@@H]3O[C@@]4(C)CC[C@@H]1[C@]32OO4` (some centres not stated), the “Log RA” value worked out at 0.28.

Turning to `C[C@@H]1CCC[C@]23OO[C@](C)(CC[C@@H]12)O[C@H]3OC(=O)Cc1ccccc1`, the “Log RA” value is given as -0.51.

In the case of `C=CC[C@H]1C(=O)O[C@@H]2O[C@@]3(C)CC[C@H]4[C@H](C)CC[C@@H]1[C@@]24OO3`, the “Log RA” value is -0.1.

`C[C@@H]1CC[C@H]2[C@@H](C)C(=O)N(c3cccs3)[C@@H]3O[C@@]4(C)CC[C@@H]1[C@@]23OO4`: the “Log RA” value was found to be 0.17.

Take `C[C@@H]1CC[C@H]2CC(=O)N(Cc3ccc(Cl)cc3)[C@@H]3O[C@@]4(C)CC[C@@H]1[C@@]23OO4`: the “Log RA” value is on record as -0.16.

As for `C[C@@H]1CC[C@@H]2[C@]34OO[C@](C)(CC[C@@H]13)O[C@H]4OC(=O)[C@]21CO1`, the “Log RA” value is recorded as -4.

Take `CCCC[C@H]1C(=O)O[C@@H]2O[C@@]3(CCCc4ccc(Cl)cc4)CC[C@H]4[C@H](C)CC[C@@H]1[C@@]24OO3`: the “Log RA” value is recorded as -0.28.

Turning to `C[C@@H]1CC[C@H]2CC(=O)O[C@@H]3O[C@@]4(C)CC[C@@H]1[C@@]23OO4`, the “Log RA” value is given as 0.79.

For `C[C@@H]1CC[C@@H]2[C@]34OO[C@](C)(CC[C@@H]13)O[C@H]4OC(=O)[C@@]21CO1`, the “Log RA” value was -2.09.

In the case of `CCCC[C@H]1C(=O)OC2OC(C)(C)OO[C@@]23CCCCC13` (some centres not stated), the “Log RA” value is given as -1.13.

Consider `C[C@@H]1CC[C@H]2[C@](C)(O)[C@H](O)O[C@@H]3O[C@@]4(C)CC[C@@H]1[C@]32OO4`, for which the “Log RA” value is reported as -0.89.

In the case of `C[C@H]1[C@@H](O)O[C@@H]2O[C@@]3(C)CC[C@H]4[C@H](C)CC[C@@H]1[C@@]24OO3` [ARTENIMOL], the “Log RA” value stood at 0.55.

Regarding `CO[C@H]1O[C@@]2(C)CC[C@H]3CCC[C@@H](CCOCc4ccc(-c5ccccc5)cc4)[C@]31OO2`, the “Log RA” value was determined as 0.32.

`C[C@@H]1CC[C@H]2[C@@H](C)C(=O)O[C@@H]3O[C@@]4(C)CC[C@@H]1[C@]32O4` [DEOXYARTEMISININ]: the “Log RA” value was -4.

Take `C=C1C(O)O[C@@H]2O[C@@]3(C)CC[C@H]4[C@H](C)CC[C@@H]1[C@@]24OO3` (some centres not stated): the “Log RA” value is -2.39.

For the compound `CC[C@H]1CO[C@@H]2O[C@@]3(C)CC[C@H]4[C@H](C)CC[C@@H]1[C@@]24OO3`, the “Log RA” value is given as 0.67.

As to `CCCCCC[C@H]1C(=O)O[C@@H]2O[C@@]3(C)CC[C@H]4[C@H](C)CC[C@@H]1[C@@]24O3`, the “Log RA” value is recorded as -4.

For `C[C@@H]1CC[C@@H]2[C@]34OO[C@](C)(CC[C@@H]13)O[C@H]4OC(Nc1ccccn1)[C@@]2(C)Br` (some centres not stated), the “Log RA” value is given as -0.09.

In the case of `CO[C@H]1O[C@@]2(C)CC[C@H]3CCC[C@@H](CCOC(=O)c4ccc(C(=O)OCCN(C)C)cc4)[C@]31OO2`, the “Log RA” value is -0.6.

Regarding `C[C@@H]1CC[C@H]2CC(=O)N(Cc3ccccc3)[C@@H]3O[C@@]4(C)CC[C@@H]1[C@@]23OO4`, the “Log RA” value worked out at 0.34.

For the compound `CC(C)C[C@@]12CC[C@H]3[C@H](C)CC[C@H]4CC(=O)O[C@H](O1)[C@]43OO2`, the “Log RA” value was -0.35.

In the case of `C[C@H]1C(=O)OC2OC(C)(C)OO[C@@]23CCCCC13` (some centres not stated), the “Log RA” value is on record as -1.27.

As to `CCC[C@H]1C(=O)O[C@@H]2O[C@@]3(C)CC[C@H]4[C@H](C)CC[C@@H]1[C@@]24O3`, the “Log RA” value is on record as -4.

For the compound `CO[C@H]1O[C@]2(C)OO[C@]13[C@H](CCO)CCC[C@@H]3CC2(C)C`, the “Log RA” value is recorded as -1.8.

For `CCOC(=O)C[C@@H](O[C@H]1O[C@@H]2O[C@@]3(C)CC[C@H]4[C@H](C)CC[C@@H]([C@H]1C)[C@@]24OO3)c1ccccc1`, the “Log RA” value is 1.07.

Consider `C/C=C1\C(=O)O[C@@H]2O[C@@]3(C)CC[C@H]4[C@H](C)CC[C@@H]1[C@@]24OO3`, for which the “Log RA” value is on record as -0.36.

`CCOC1O[C@@H]2O[C@@]3(C)CC[C@H]4[C@H](C)CC[C@@H]([C@H]1C)[C@@]24OO3` (some centres not stated): the “Log RA” value is given as 0.34.

Take `C[C@@H]1CC[C@H]2CC(=O)O[C@@H]3O[C@@]4(CCc5ccccc5)CC[C@@H]1[C@@]23O4`: the “Log RA” value is -4.

As to `CCOC(=O)CC[C@@]12CC[C@H]3[C@H](C)CC[C@H]4CC(=O)O[C@H](O1)[C@]43OO2`, the “Log RA” value is given as 0.37.

In the case of `C[C@@H]1CC[C@H]2[C@@H](C)CO[C@H]3C[C@]4(C)CC[C@@H]1[C@@]32OO4`, the “Log RA” value is -2.59.

For the compound `CC1C(=O)O[C@@H]2C[C@@]3(C)CC[C@H]4[C@H](C)CC[C@@H]1[C@@]24OO3` (some centres not stated), the “Log RA” value is on record as -0.96.

`C[C@@H]1CC[C@H]2CC(=O)N(CCCc3ccccc3)[C@@H]3O[C@@]4(C)CC[C@@H]1[C@@]23OO4`: the “Log RA” value stood at 0.02.

In the case of `CCO[C@H]1O[C@@H]2O[C@@]3(C)CC[C@H]4C(C)C(=O)C[C@@H]([C@H]1C)[C@@]24OO3` (some centres not stated), the “Log RA” value worked out at 0.16.

For `C/C=C/C[C@@H]1C(=O)O[C@@H]2O[C@@]3(C)CC[C@H]4[C@H](C)CC[C@@H]1[C@@]24OO3`, the “Log RA” value is on record as -0.6.

As to `C[C@@H]1CC[C@H]2[C@@H](C)C(=O)N[C@@H]3O[C@@]4(C)CC[C@@H]1[C@]32OO4`, the “Log RA” value turned out to be 0.

As to `CCOC1O[C@@H]2O[C@@]3(C)CC[C@H]4[C@H](C)CC[C@@H]([C@H]1CC)[C@@]24OO3` (some centres not stated), the “Log RA” value worked out at 0.5.

Regarding `C[C@@H]1CC[C@H]2[C@@H](C)C(=O)O[C@@H]3O[C@@]4(C)CC[C@@H]1[C@]32OO4` [ARTEMISININ], the “Log RA” value is listed as 0.

For `c1ccc([C@]23CC[C@@](c4ccccc4)(COC2)OO3)cc1`, the “Log RA” value is -2.26.

As to `CC[C@@]12CC[C@H]3[C@H](C)CC[C@H]4CC(=O)O[C@H](O1)[C@]43OO2`, the “Log RA” value amounted to 0.05.

Take `CO[C@H]1O[C@@]2(C)CC[C@H]3CCC[C@@H](CCOCc4ccncc4)[C@]31OO2`: the “Log RA” value amounted to 0.14.

Regarding `CCOC1O[C@@H]2O[C@@]3(C)CC[C@H]4[C@H](C)CC[C@H]([C@@]24OO3)[C@]1(C)O` (some centres not stated), the “Log RA” value is -0.44.

Turning to `CO[C@@H]1O[C@@]2(C)CC[C@H]3CC(C)(C)CC[C@]31OO2`, the “Log RA” value is given as -0.47.

Regarding `C[C@@H]1CCC[C@@]23CO[C@@](C)(CC[C@@H]12)OO3`, the “Log RA” value is given as -0.32.

Turning to `C[C@@H]1CC[C@H]2C3(CC3)C(=O)O[C@@H]3O[C@@]4(C)CC[C@@H]1[C@]32OO4`, the “Log RA” value was -0.94.

These data come from ChEMBL document CHEMBL1135798, “Structure-activity relationships of the antimalarial agent artemisinin. 6. The development of predictive in vitro potency models using CoMFA and HQSAR methodologies” (2002).
